Experimental data: patent US10710980B2, “Aminopyridine derivatives and their use as selective ALK-2 inhibitors” (priority 2016, dated 2020)
Read-outs that look alike come from different tables or passages of the source.

Columns and labels:
[1] = system: BMP response element (BRE) luciferase reporter in HuH7 cells, BMP6 stimulated; assay: BMP signaling reporter gene assay; type: cell-based; conditions: Homo sapiens, read-out: MSD BMP RGA IC50
[2] = molecular target: T1, wild-type ALK2 (aa172-499) (Homo sapiens (Human), UniProt Q04771); assay: Caliper biochemical peptide phosphorylation assay, ALK2; conditions: 15 μm ATP, 60 min at 30° C.; read-out: ALK2 EPK (IC50)
T1 sequence (Q04771 172-499): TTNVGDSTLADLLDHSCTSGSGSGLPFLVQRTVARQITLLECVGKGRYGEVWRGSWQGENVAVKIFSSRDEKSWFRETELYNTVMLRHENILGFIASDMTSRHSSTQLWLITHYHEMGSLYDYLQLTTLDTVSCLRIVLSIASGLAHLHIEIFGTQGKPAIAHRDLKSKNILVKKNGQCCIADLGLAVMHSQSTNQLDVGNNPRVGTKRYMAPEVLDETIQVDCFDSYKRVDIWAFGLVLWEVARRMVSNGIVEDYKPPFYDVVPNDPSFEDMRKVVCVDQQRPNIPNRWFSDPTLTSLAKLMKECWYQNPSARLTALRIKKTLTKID

ALK3 (aa198-525) = ALK3 (aa198-525) (Homo sapiens (Human), UniProt P36894); assay: ADPGlo biochemical autophosphorylation assay, ALK3; conditions: 15 μm ATP, 60 min at 32° C.
Sequence of ALK3 (aa198-525) (P36894 198-525): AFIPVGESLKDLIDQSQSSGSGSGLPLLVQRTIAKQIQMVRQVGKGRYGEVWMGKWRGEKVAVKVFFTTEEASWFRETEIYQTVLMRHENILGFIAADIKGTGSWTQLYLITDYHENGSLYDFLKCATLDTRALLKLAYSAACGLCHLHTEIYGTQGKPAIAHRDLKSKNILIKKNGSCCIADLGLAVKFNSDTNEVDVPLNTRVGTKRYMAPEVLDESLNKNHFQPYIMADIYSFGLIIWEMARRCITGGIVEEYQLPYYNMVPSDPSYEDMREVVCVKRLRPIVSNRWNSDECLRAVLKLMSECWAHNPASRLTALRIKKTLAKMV

[3] = molecular target: T1, wild-type ALK2 (aa172-499); assay: ADPGlo biochemical autophosphorylation assay, ALK2; conditions: 15 μm ATP, 60 min at 32° C.
ALK5 (aa162-503) = ALK5 (aa162-503) (Homo sapiens (Human), UniProt P36897); assay: Caliper biochemical peptide phosphorylation assay, ALK5; conditions: 15 μm ATP, 60 min at 30° C.; read-out: ALK5 EPK (IC50)
Sequence of ALK5 (aa162-503) (P36897 162-503): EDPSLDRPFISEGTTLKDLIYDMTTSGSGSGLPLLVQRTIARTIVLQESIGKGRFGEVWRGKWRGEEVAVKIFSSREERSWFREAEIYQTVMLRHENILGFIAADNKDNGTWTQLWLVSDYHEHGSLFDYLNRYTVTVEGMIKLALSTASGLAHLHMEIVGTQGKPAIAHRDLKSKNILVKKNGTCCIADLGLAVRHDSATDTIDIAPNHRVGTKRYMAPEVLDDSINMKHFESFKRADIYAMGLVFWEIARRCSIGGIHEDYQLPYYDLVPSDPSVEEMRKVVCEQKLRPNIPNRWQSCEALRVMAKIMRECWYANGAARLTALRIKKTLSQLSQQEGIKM

ALK6 (aa168-495) = ALK6 (aa168-495) (Homo sapiens (Human), UniProt O00238); assay: Caliper biochemical peptide phosphorylation assay, ALK6; conditions: 15 μm ATP, 60 min at 30° C.; read-out: ALK6 EPK (IC50)
Sequence of ALK6 (aa168-495) (O00238 168-495): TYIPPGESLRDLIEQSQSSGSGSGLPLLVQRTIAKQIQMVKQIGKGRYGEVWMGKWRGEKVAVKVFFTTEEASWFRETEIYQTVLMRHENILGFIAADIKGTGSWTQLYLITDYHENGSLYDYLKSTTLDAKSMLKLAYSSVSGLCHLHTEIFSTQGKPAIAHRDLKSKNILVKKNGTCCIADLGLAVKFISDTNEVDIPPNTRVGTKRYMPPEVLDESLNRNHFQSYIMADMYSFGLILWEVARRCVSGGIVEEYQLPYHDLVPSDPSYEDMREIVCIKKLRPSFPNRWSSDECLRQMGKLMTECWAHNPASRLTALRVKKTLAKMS

ALK1 (aa166-493) = ALK1 (aa166-493) (Homo sapiens (Human), UniProt P37023); assay: Caliper biochemical peptide phosphorylation assay, ALK1; conditions: 15 μm ATP, 60 min at 30° C.; read-out: ALK1 EPK (IC50)
Sequence of ALK1 (aa166-493) (P37023 166-493): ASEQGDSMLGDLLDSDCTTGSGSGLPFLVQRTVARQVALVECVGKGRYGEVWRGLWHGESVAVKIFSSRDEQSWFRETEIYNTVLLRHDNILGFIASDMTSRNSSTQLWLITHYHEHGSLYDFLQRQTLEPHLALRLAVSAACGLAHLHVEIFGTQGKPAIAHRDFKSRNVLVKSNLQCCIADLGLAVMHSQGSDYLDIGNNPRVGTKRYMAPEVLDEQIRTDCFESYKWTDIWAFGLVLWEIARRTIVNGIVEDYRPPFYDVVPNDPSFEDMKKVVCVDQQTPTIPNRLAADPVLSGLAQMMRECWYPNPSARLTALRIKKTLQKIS

[4] = Huh-7, HuH7 BRE-luciferase, BMP6 100 ng/ml, 5 hours

| IC50 [1, 4] [nM] | IC50 [2] [nM] | IC50 (ALK3 (aa198-525)) [nM] | IC50 [3] [nM] | IC50 (ALK5 (aa162-503)) [nM] | IC50 (ALK6 (aa168-495)) [nM] | IC50 (ALK1 (aa166-493)) [nM] | Compound | IC50 ([1]; Huh-7, 5 h) [nM] |
| --- | --- | --- | --- | --- | --- | --- | --- | --- |
| 79 | 15 | 1400 | 12 | 9900 | 5000 | 240 | CC(C)N1C[C@@H]2C[C@]2(c2ccc(-c3cnc(N)c(C(=O)NC45CC(CO)(C4)C5)c3)cc2)C1 [Example 16, 2-amino-N-(3-(hydroxymethyl)bicyclo[1.1.1]pentan-1-yl)-5-(4-((1S,5R)-3-isopropyl-3-azabicyclo[3.1.0]hexan-1-yl)phenyl)nicotinamide] | – |
| 150 | 14 | 2000 | 12 | 1600 | 2400 | 110 | Nc1ncc(-c2ccc([C@]34C[C@H]3CN(CCC(F)(F)F)C4)cc2)cc1C(=O)N[C@H]1CC[C@H](O)CC1 [Example 17, 2-amino-N-((1r,4S)-4-hydroxycyclohexyl)-5-(4-((1S,5R)-3-(3,3,3-trifluoropropyl)-3-azabicyclo[3.1.0]hexan-1-yl)phenyl)nicotinamide] | – |
| 40 | 17 | 1350 | 7 | 3800 | 3950 | 130 | COCCN1C[C@@H]2C[C@]2(c2ccc(-c3cnc(N)c(C(=O)N[C@H]4CC[C@H](O)CC4)c3)cc2)C1 [Example 20, 2-amino-N-((1r,4S)-4-hydroxycyclohexyl)-5-(4-((1S,5R)-3-(2-methoxyethyl)-3-azabicyclo[3.1.0]hexan-1-yl)phenyl)nicotinamide] | – |
| 81 | 16 | 6480 | 11 | 6800 | 7300 | 543 | CC(C)N1C[C@H]2C[C@@]2(c2ccc(-c3cnc(N)c(C(=O)N[C@H]4CC[C@](C)(O)CC4)c3)cc2)C1 [Example 24, 2-amino-N-((1r,4R)-4-hydroxy-4-methylcyclohexyl)-5-(4-((1R,5S)-3-isopropyl-3-azabicyclo[3.1.0]hexan-1-yl)phenyl)nicotinamide] | – |
| 110 | 18 | 1700 | 18 | 4300 | 2500 | 230 | Nc1ncc(-c2ccc([C@]34C[C@H]3CN(C3COC3)C4)cc2)cc1C(=O)N[C@H]1CC[C@H](O)CC1 [Example 26, 2-amino-N-((1r,4S)-4-hydroxycyclohexyl)-5-(4-((1S,5R)-3-(oxetan-3-yl)-3-azabicyclo[3.1.0]hexan-1-yl)phenyl)nicotinamide] | – |
| 17 | 18 | 530 | 11 | 9400 | 3300 | 250 | Nc1ncc(-c2ccc([C@]34C[C@H]3CN(C3CCOCC3)C4)cc2)cc1C(=O)NC12CC(CO)(C1)C2 [Example 28, 2-amino-N-(3-(hydroxymethyl)bicyclo[1.1.1]pentan-1-yl)-5-(4-((1S,5R)-3-(tetrahydro-2H-pyran-4-yl)-3-azabicyclo[3.1.0]hexan-1-yl)phenyl)nicotinamide] | – |
| 685 | 20 | 2500 | 22 | 4000 | 4000 | 280 | Nc1ncc(-c2ccc(N3CCNCC3)cc2F)cc1C(=O)N[C@H]1CC[C@H](O)CC1 [Example 29, 2-amino-5-(2-fluoro-4-(piperazin-1-yl)phenyl)-N-((1r,4r)-4-hydroxycyclohexyl)nicotinamide] | – |
| 68 | 22 | 500 | 7 | 4000 | 2800 | 210 | Nc1ncc(-c2ccc([C@@]34C[C@@H]3CN(C3CCOCC3)C4)cc2)cc1C(=O)NC12CC(CO)(C1)C2 [Example 30, 2-amino-N-(3-(hydroxymethyl)bicyclo[1.1.1]pentan-1-yl)-5-(4-((1R,5S)-3-(tetrahydro-2H-pyran-4-yl)-3-azabicyclo[3.1.0]hexan-1-yl)phenyl)nicotinamide] | – |
| 115 | 20 | 1200 | 13 | 3500 | 4500 | 230 | C[C@@H]1CCCN1Cc1ccc(-c2cnc(N)c(C(=O)N[C@H]3CC[C@H](O)CC3)c2)cc1 [Example 31, 2-amino-N-((1r,4R)-4-hydroxycyclohexyl)-5-(4-(((R)-2-methylpyrrolidin-1-yl)methyl)phenyl)nicotinamide] | – |
| 93 | 20 | 12700 | 22 | 3200 | 3300 | 743 | CC(C)N1C[C@@H]2C[C@]2(c2ccc(-c3cnc(N)c(C(=O)N[C@H]4CC[C@](C)(O)CC4)c3)cc2)C1 [Example 32, 2-amino-N-((1r,4S)-4-hydroxy-4-methylcyclohexyl)-5-(4-((1S,5R)-3-isopropyl-3-azabicyclo[3.1.0]hexan-1-yl)phenyl)nicotinamide] | – |
| 49 | 23 | 914 | 18 | 6280 | 3300 | 323 | Nc1ncc(-c2ccc([C@@]34C[C@@H]3CN(C3CCOCC3)C4)cc2)cc1C(=O)NC12CCC(O)(CC1)CC2 [Example 34, 2-amino-N-(4-hydroxybicyclo[2.2.2]octan-1-yl)-5-(4-((1R,5S)-3-(tetrahydro-2H-pyran-4-yl)-3-azabicyclo[3.1.0]hexan-1-yl)phenyl)nicotinamide] | – |
| 73 | 21 | 903 | 17 | 5720 | 4500 | 283 | Nc1ncc(-c2ccc([C@]34C[C@H]3CN(C3CCC(F)(F)CC3)C4)cc2)cc1C(=O)NC12CCC(O)(CC1)CC2 [Example 35, 2-amino-5-(4-((1S,5R)-3-(4,4-difluorocyclohexyl)-3-azabicyclo[3.1.0]hexan-1-yl)phenyl)-N-(4-hydroxybicyclo[2.2.2]octan-1-yl)nicotinamide] | – |
| 43 | 23 | 1450 | 16 | 10000 | 7200 | 295 | CC(C)N1C[C@H]2C[C@@]2(c2ccc(-c3cnc(N)c(C(=O)NC45CC(CO)(C4)C5)c3)cc2)C1 [Example 36, 2-amino-N-(3-(hydroxymethyl)bicyclo[1.1.1]pentan-1-yl)-5-(4-((1R,5S)-3-isopropyl-3-azabicyclo[3.1.0]hexan-1-yl)phenyl)nicotinamide] | – |
| 37 | 27 | 960 | 8 | 1100 | 1700 | 100 | CC#CCN1C[C@@H]2C[C@]2(c2ccc(-c3cnc(N)c(C(=O)N[C@H]4CC[C@H](O)CC4)c3)cc2)C1 [Example 37, 2-amino-5-(4-((1S,5R)-3-(but-2-yn-1-yl)-3-azabicyclo[3.1.0]hexan-1-yl)phenyl)-N-((1r,4S)-4-hydroxycyclohexyl)nicotinamide] | – |
| 58 | 28 | 1300 | 7 | 1500 | 2600 | 160 | Nc1ncc(-c2ccc([C@]34C[C@H]3CN(CC3COC3)C4)cc2)cc1C(=O)N[C@H]1CC[C@H](O)CC1 [Example 38, 2-amino-N-((1r,4S)-4-hydroxycyclohexyl)-5-(4-((1S,5R)-3-(oxetan-3-ylmethyl)-3-azabicyclo[3.1.0]hexan-1-yl)phenyl)nicotinamide] | – |
| 78 | 24 | 830 | 13 | 1600 | 2000 | 190 | Nc1ncc(-c2ccc([C@@]34C[C@@H]3CN(C3CCN(CC(F)(F)F)CC3)C4)cc2)cc1C(=O)N[C@H]1CC[C@H](O)CC1 [Example 39, 2-amino-N-((1r,4R)-4-hydroxycyclohexyl)-5-(4-((1R,5S)-3-(1-(2,2,2-trifluoroethyl)piperidin-4-yl)-3-azabicyclo[3.1.0]hexan-1-yl)phenyl)nicotinamide] | – |

| Compound | IC50 [1, 4] [nM] | IC50 [2] [nM] | IC50 (ALK3 (aa198-525)) [nM] | IC50 [3] [nM] | IC50 (ALK5 (aa162-503)) [nM] | IC50 (ALK6 (aa168-495)) [nM] | IC50 (ALK1 (aa166-493)) [nM] | IC50 ([1]; Huh-7, 5 h) [nM] |
| --- | --- | --- | --- | --- | --- | --- | --- | --- |
| Nc1ncc(-c2ccc([C@@]34C[C@@H]3CN(C3CCOCC3)C4)cc2)cc1C(=O)N[C@@H]1CC[C@@H](O)[C@@H](F)C1 [Example 21, 2-amino-N-((1R,3S,4R)-3-fluoro-4-hydroxycyclohexyl)-5-(4-((1R,5S)-3-(tetrahydro-2H-pyran-4-yl)-3-azabicyclo[3.1.0]hexan-1-yl)phenyl)nicotinamide] | 35 | 19 | 260 | 6 | 900 | 1000 | 55 | – |
| Nc1ncc(-c2ccc(CN3CC4(CCC4)C3)cc2)cc1C(=O)N[C@H]1CC[C@H](O)CC1 [Example 23, 5-(4-(2-azaspiro[3.3]heptan-2-ylmethyl)phenyl)-2-amino-N-((1r,4r)-4-hydroxycyclohexyl)nicotinamide] | – | 18 | 1600 | 9 | 2700 | 2400 | 250 | 23 |
